The results in this text go back to US5750362A, “Methods for identifying substances with a potential herbicidal or growth-regulating action by means of plant transporter proteins, the use of the transporter proteins, and substances with a herbicidal and growth-regulating action” (BASF Aktiengesellschaft, priority 1993, dated 1998).

The structures appear in SMILES notation.

The target in assay [1] is T1, sucrose transporter S21 (SoSUT1) (Spinacia oleracea, UniProt Q03411).
T1 construct: expressed in transfected cells; host or cells: Saccharomyces cerevisiae SUSY7
T1 sequence (Q03411 1-525): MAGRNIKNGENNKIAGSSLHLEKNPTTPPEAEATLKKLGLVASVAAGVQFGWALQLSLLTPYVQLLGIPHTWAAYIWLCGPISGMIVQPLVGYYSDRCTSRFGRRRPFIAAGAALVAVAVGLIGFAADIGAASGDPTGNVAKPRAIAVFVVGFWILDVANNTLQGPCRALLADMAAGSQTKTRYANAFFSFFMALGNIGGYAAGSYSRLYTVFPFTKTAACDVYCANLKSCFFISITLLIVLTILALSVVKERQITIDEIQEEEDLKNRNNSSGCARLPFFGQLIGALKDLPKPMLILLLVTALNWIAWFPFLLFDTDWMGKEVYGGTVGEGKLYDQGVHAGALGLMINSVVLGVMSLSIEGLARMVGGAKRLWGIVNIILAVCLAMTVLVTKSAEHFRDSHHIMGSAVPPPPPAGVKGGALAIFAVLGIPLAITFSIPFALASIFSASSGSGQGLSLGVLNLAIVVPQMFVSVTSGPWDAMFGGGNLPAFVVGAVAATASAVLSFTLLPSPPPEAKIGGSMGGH
As to the kind of experiment: [14C]-sucrose uptake by yeast strain SUSY7 expressing the spinach sucrose transporter. It is filed as cell-based. The note with it: [14C]-sucrose uptake, pH 3.8, read-out: Activity relative to the control [%]. As to the method:
Yeast cells of the strain SUSY7 (Riesmeier et al., 1992, EMBO J. 11: 4705-4713) are used to identify substances which have an inhibitory effect on sucrose transporters from spinach. Cells of this strain are transformed with a cDNA sequence which codes for the sucrose transporter S21 (SoSUT1) from spinach and which ensures expression of a functional transporter in the cells. The yeast cells are cultured in minimal medium (SD+2% (w/v) sucrose, pH 3.8) at 28° C. and harvested in the logarithmic phase (OD600 =0.6). The cells are spun down at 4000 rpm for 10 minutes and washed twice with SD medium. A cell concentration of c=50 g/l in SD medium is adjusted according to the wet weight of the cells, and 200 μl aliquot fractions are taken. Before the actual reaction, the cells are incubated in 10 mM glucose for 5 min and adjusted to pH 3.8 with MES buffer. The reaction is started by adding 200 μl of a 0.2 mmol/l [14C]-sucrose solution (3 mCi/mmol) in SD medium (pH 3.8). After 20, 60, 120, 180 and 240 seconds, 70 μl portions of the suspension are removed and pipetted into 4 ml of ice-cold water in order to stop the reaction. The cells are filtered off on glass fiber filters and washed twice with ice-cold water. The radioactivity on the filters is subsequently determined in a liquid scintillation counter. The substances to be tested are added 30 seconds before addition of the sucrose. The uptake of radiolabeled sucrose without addition of a potential inhibitor is determined as one control. Cells of the strain SUSY7 which are not transformed with cDNA sequences coding for a sucrose transporter from spinach are employed as further control.
The various tested substances, their concentration and the activity of the transporter, shown as percentage activity of the control in which no potential inhibitors were added, are indicated. Substances which specifically show an inhibitory effect on the sucrose transporter S21 (SoSUT1), are tested for their herbicidal and growth-regulating effect on whole plants.

For assay [2], the target named is T2, sucrose transporter P62 (StSUT1) (Solanum tuberosum, UniProt Q43653).
T2 construct: whole-cell [14C]-sucrose uptake; no tag or borders given
T2 sequence (Q43653 1-516): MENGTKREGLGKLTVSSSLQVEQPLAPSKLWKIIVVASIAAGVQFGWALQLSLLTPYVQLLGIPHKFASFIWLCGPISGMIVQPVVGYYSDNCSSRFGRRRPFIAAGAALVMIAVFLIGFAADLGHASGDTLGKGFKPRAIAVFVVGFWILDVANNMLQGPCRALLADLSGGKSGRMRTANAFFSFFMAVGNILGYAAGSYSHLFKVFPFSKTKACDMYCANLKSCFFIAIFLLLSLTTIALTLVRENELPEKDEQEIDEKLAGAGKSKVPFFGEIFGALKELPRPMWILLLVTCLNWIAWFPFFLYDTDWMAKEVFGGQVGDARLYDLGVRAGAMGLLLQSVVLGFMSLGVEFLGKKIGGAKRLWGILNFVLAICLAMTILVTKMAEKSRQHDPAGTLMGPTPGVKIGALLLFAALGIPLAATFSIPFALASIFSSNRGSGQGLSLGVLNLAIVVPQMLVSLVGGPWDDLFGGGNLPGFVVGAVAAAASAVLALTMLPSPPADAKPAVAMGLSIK
As to the kind of experiment: [14C]-sucrose uptake by yeast strain SUSY-7-P62 (StSUT1) expressing the potato sucrose transporter. The assay is classed as cell-based. The note with it: [14C]-sucrose uptake, pH 3.8, read-out: Activity relative to the control [%]. The method, boiled down: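 SUSY7 yeast expressing potato StSUT1, log-phase cells at 50 g/l wet weight, glucose-energised, pH 3.8. Test substances added 30 s before 0.2 mmol/l [14C]-sucrose solution; uptake sampled 20–240 s by filtration and scintillation, expressed as percent of uninhibited control; untransformed SUSY7 as further control.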

Take `N#CC(C#N)=NNc1cccc(Cl)c1` [CCCP]: the remaining activity at 10 µM was 10% in assay [1] (tested substance 10 μM) and 9% in assay [2] (tested substance 10 μM).

Regarding `CCOC(=O)OC(=O)OCC` [DEPC, diethyl pyrocarbonate], the remaining activity at 500 µM in assay [1] (tested substance 0.5 mM) and in assay [2] (tested substance 0.5 mM) was 6% each time.
